Among the data in PubChem BioAssay AID330 (DTP/NCI, 2004) are T/C values, retold here.

Several values for one entry are separate records, joined by “and”; a condition that tells them apart may be missing. Equal entries are not always repeated. Inconclusive results and toxic doses are left out.

The test concerns P388 leukemia ip, CD2F1 mice, survival T/C. The test can be described thus: NCI In Vivo Anticancer Drug Screen. Data for tumor model P388 Leukemia (intraperitoneal) in CD2F1 (CDF1) mice. As to conditions: endpoint: median survival time, higher = longer survival. The method in brief:
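Mice carrying the transplanted tumor received test compound or vehicle. Survival was recorded in each group, and the value is the treated-group measurement divided by that of the vehicle-treated control group.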

[1] abbreviates: dose: 60.0 mg/kg/injection, schedule: Q01DX005 (ip), vehicle: saline with Tween-80.
Where [2] appears, read: dose: 120.0 mg/kg/injection, schedule: Q01DX005 (ip), vehicle: saline with Tween-80.
Where [3] appears, read: dose: 240.0 mg/kg/injection, schedule: Q01DX005 (ip), vehicle: saline with Tween-80.
Setting [4] is: dose: 50.0 mg/kg/injection, schedule: Q01DX005 (ip), vehicle: saline.
Setting [5] is: dose: 100.0 mg/kg/injection, schedule: Q01DX005 (ip), vehicle: saline.
The mark [6] stands for this setting: dose: 25.0 mg/kg/injection, schedule: Q01DX009 (ip), vehicle: saline with Tween-80.
Setting [7] is: dose: 50.0 mg/kg/injection, schedule: Q01DX009 (ip), vehicle: saline with Tween-80.
The mark [8] stands for this setting: dose: 100.0 mg/kg/injection, schedule: Q01DX009 (ip), vehicle: saline with Tween-80.
The mark [9] stands for this setting: dose: 100.0 mg/kg/injection, schedule: Q04DX003 (ip), vehicle: saline with Tween-80.
The mark [10] stands for this setting: dose: 200.0 mg/kg/injection, schedule: Q04DX003 (ip), vehicle: saline with Tween-80.
The mark [11] stands for this setting: dose: 50.0 mg/kg/injection, schedule: Q01DX005 (ip), vehicle: saline with Tween-80.
[12] abbreviates: dose: 100.0 mg/kg/injection, schedule: Q01DX005 (ip), vehicle: saline with Tween-80.
The mark [13] stands for this setting: dose: 200.0 mg/kg/injection, schedule: Q01DX005 (ip), vehicle: saline with Tween-80.
The mark [14] stands for this setting: dose: 25.0 mg/kg/injection, schedule: Q01DX009 (ip), vehicle: Klucel (hydroxypropylcellulose) (HPC).
[15] abbreviates: dose: 50.0 mg/kg/injection, schedule: Q01DX009 (ip), vehicle: Klucel (hydroxypropylcellulose) (HPC).
The mark [16] stands for this setting: dose: 12.5 mg/kg/injection, schedule: Q04DX002 (ip), vehicle: saline with Tween-80.
Setting [17] is: dose: 25.0 mg/kg/injection, schedule: Q04DX002 (ip), vehicle: saline with Tween-80.
Where [18] appears, read: dose: 200.0 mg/kg/injection, schedule: Q01DX009 (ip), vehicle: saline with Tween-80.

For `C[N+](C)(CCCCCCOc1c(Br)cc(Br)cc1Br)Cc1ccc(Br)o1`, the T/C was 104 % of control (dose: 1.56 mg/kg/injection, schedule: Q01DX009 (ip), vehicle: Klucel (hydroxypropylcellulose) (HPC)); 113 % of control (dose: 3.12 mg/kg/injection, schedule: Q01DX009 (ip), vehicle: Klucel (hydroxypropylcellulose) (HPC)); 93 % of control (dose: 6.25 mg/kg/injection, schedule: Q01DX009 (ip), vehicle: Klucel (hydroxypropylcellulose) (HPC)).
For `Cc1sc2c(c1C)c(=O)[nH]c1c(C#N)c(-c3ccc(Cl)cc3)cn12`, the T/C under setting [1] is 86 % of control and 90 % of control; the T/C under setting [2] is 89 % of control; the T/C under setting [3] is 94 % of control.
`CCCCCOC(=O)C1=CCN2CCCC12C` (centres undefined): the T/C is, setting by setting: (dose: 25.0 mg/kg/injection, schedule: Q01DX001 (ip), vehicle: saline with Tween-80) 97 % of control; (dose: 50.0 mg/kg/injection, schedule: Q01DX001 (ip), vehicle: saline with Tween-80) 105 % of control; (dose: 100.0 mg/kg/injection, schedule: Q01DX001 (ip), vehicle: saline with Tween-80) 97 % of control.
Regarding `CC1(C(=O)O)CCC2(C)CCC3(C)C(=CC(=O)C4C5(C)CCC(OC6OC(C(=O)O)C(O)C(O)C6OC6OC(C(=O)O)C(O)C(O)C6O)C(C)(C)C5CCC43C)C2C1` (centres undefined), the T/C is, setting by setting: under setting [4], 99 % of control; under setting [5], 97 % of control; (dose: 200.0 mg/kg/injection, schedule: Q01DX005 (ip), vehicle: saline) 103 % of control.
Consider `CCCCN(CCCC)CCC(O)c1cc(-c2ccc(C(F)(F)F)cc2)nc(C(F)(F)F)c1` (centres undefined), for which the T/C reads like this: (dose: 6.25 mg/kg/injection, schedule: Q01DX009 (ip), vehicle: saline with Tween-80) 89 % of control; (dose: 12.5 mg/kg/injection, schedule: Q01DX009 (ip), vehicle: saline with Tween-80) 94 % of control; under setting [6], 110 % of control.
With `CCc1cccc(NC(=O)Sc2ccc(O)cc2)c1`, the T/C under setting [7] was 108 % of control and the T/C under setting [8] is 106 % of control.
Regarding `c1ccc2sc(SSN3CCOCC3)nc2c1`, the T/C by setting is: (dose: 50.0 mg/kg/injection, schedule: Q01DX009 (ip), vehicle: suspension in saline) 97 % of control; (dose: 100.0 mg/kg/injection, schedule: Q01DX009 (ip), vehicle: suspension in saline) 106 % of control; (dose: 200.0 mg/kg/injection, schedule: Q01DX009 (ip), vehicle: suspension in saline) 95 % of control; (dose: 400.0 mg/kg/injection, schedule: Q01DX009 (ip), vehicle: suspension in saline) 90 % of control.
For the compound `Cc1csc(NC(=S)NC(=O)c2ccccc2)n1`, the T/C is, setting by setting: under setting [9], 91 % of control; under setting [10], 90 % of control.
Regarding `COc1cc2oc(=O)cc(C)c2cc1N`, the T/C (dose: 50.0 mg/kg/injection, schedule: Q04DX002 (ip), vehicle: suspension in saline) was 109 % of control; the T/C (dose: 100.0 mg/kg/injection, schedule: Q04DX002 (ip), vehicle: suspension in saline) was 99 % of control; the T/C (dose: 200.0 mg/kg/injection, schedule: Q04DX002 (ip), vehicle: suspension in saline) is 106 % of control.
For `OC1CC2(CC3(C1)SCCS3)SCCS2` (centres undefined), the T/C is 102 % of control (dose: 100.0 mg/kg/injection, schedule: Q01DX001 (ip), vehicle: Klucel (hydroxypropylcellulose) (HPC)); 99 % of control (dose: 200.0 mg/kg/injection, schedule: Q01DX001 (ip), vehicle: Klucel (hydroxypropylcellulose) (HPC)); 106 % of control (dose: 400.0 mg/kg/injection, schedule: Q01DX001 (ip), vehicle: Klucel (hydroxypropylcellulose) (HPC)).
Turning to `O=C1NC(=O)C2(OC3c4ccccc4C=CN3C3=C2C(=O)CC3)C(=O)N1` (centres undefined), the T/C is, setting by setting: under setting [11], 97 % of control; under setting [12], 91 % of control; under setting [13], 91 % of control.
Regarding `CCCCOc1cc(C(=O)NCCN(C)C)c2ccccc2n1`, the T/C is 104 % of control (dose: 7.5 mg/kg/injection, schedule: Q01DX005 (ip), vehicle: saline with Tween-80); 106 % of control (dose: 15.0 mg/kg/injection, schedule: Q01DX005 (ip), vehicle: saline with Tween-80); 106 % of control (dose: 30.0 mg/kg/injection, schedule: Q01DX005 (ip), vehicle: saline with Tween-80).
As for `CN1CCC(c2ccccc2)C(OC(=O)c2ccccc2)C1` (centres undefined), the T/C was 110 % of control (dose: 25.0 mg/kg/injection, schedule: Q01DX005 (ip), vehicle: saline); 111 % of control under setting [4]; 100 % of control under setting [5].
Take `CC(C)(C)OC(=O)NCCCC(NC(=O)OCc1ccccc1)C(=O)O` (centres undefined): the T/C runs as follows: under setting [11], 103 % of control; under setting [12], 99 % of control; under setting [13], 95 % of control.
As for `C=C(C#N)COc1ccc(Cl)cc1C`, the T/C by setting is: (dose: 12.5 mg/kg/injection, schedule: Q01DX009 (ip), vehicle: Klucel (hydroxypropylcellulose) (HPC)) 101 % of control; under setting [14], 98 % of control; under setting [15], 104 % of control and 95 % of control.
Consider `COc1cc(NS(C)(=O)=O)ccc1Nc1c2ccccc2nc2cc(C(F)(F)F)c(N)cc12`, for which the T/C (dose: 13.0 mg/kg/injection, schedule: Q04DX003 (ip), vehicle: distilled water + Tween-80) was 162 % of control; the T/C (dose: 21.6 mg/kg/injection, schedule: Q04DX003 (ip), vehicle: distilled water + Tween-80) was 180 % of control; the T/C under setting [14] was 172 % of control; the T/C (dose: 36.0 mg/kg/injection, schedule: Q04DX003 (ip), vehicle: distilled water + Tween-80) was 190 % of control; the T/C under setting [15] is 152 % of control and 182 % of control; the T/C (dose: 60.0 mg/kg/injection, schedule: Q04DX003 (ip), vehicle: distilled water + Tween-80) is 228 % of control. Also, the T/C (dose: 100.0 mg/kg/injection, schedule: Q01DX009 (ip), vehicle: Klucel (hydroxypropylcellulose) (HPC)) was 123 % of control.
In the case of `CC1OS(=O)(=O)C=C1Br` (centres undefined), the T/C is 108 % of control under setting [9]; 97 % of control under setting [10]; 89 % of control (dose: 400.0 mg/kg/injection, schedule: Q04DX003 (ip), vehicle: saline with Tween-80).
Regarding `CC(=O)Oc1ccc2ccc3nonc3c2c1`, the T/C was 99 % of control under setting [11], 99 % of control under setting [12] and 94 % of control under setting [13].
In the case of `[Cl][Pt+2][Cl].[NH-]Cc1ccccc1[NH-]`, the T/C was 164 % of control (dose: 6.25 mg/kg/injection, schedule: Q04DX002 (ip), vehicle: saline with Tween-80); 164 % of control under setting [16]; 167 % of control under setting [17].
`COc1cccc(/C=N/NC(=O)N/N=C/c2cccc(OC)c2O)c1O`: the T/C reads like this: under setting [7], 92 % of control; under setting [8], 100 % of control; under setting [18], 101 % of control; (dose: 400.0 mg/kg/injection, schedule: Q01DX009 (ip), vehicle: saline with Tween-80) 95 % of control.
For `OC1CC2CC1CC2c1cnc[nH]1` (centres undefined), the T/C was 100 % of control under setting [16]; 100 % of control under setting [17]; 100 % of control (dose: 50.0 mg/kg/injection, schedule: Q04DX002 (ip), vehicle: saline with Tween-80); 100 % of control (dose: 100.0 mg/kg/injection, schedule: Q04DX002 (ip), vehicle: saline with Tween-80).
For the compound `CN(C)c1ccc(NC(=O)c2ccccc2O)cc1`, the T/C reads like this: under setting [7], 113 % of control; under setting [8], 104 % of control; under setting [18], 99 % of control.
`Cc1nc(Nc2ccccc2)c(C#N)c(=O)[nH]1`: the T/C is 86 % of control under setting [1], 86 % of control under setting [2] and 86 % of control under setting [3].
Regarding `O=C1C=C(c2ccccc2)CC1`, the T/C is 88 % of control under setting [6], 100 % of control under setting [7] and 111 % of control under setting [8].
In the case of `CCOC([O-])=N/C(=N/[n+]1ccc(C)cc1)c1ccccc1`, the T/C (dose: 100.0 mg/kg/injection, schedule: Q04DX003 (ip), vehicle: saline) was 104 % of control and the T/C (dose: 200.0 mg/kg/injection, schedule: Q04DX003 (ip), vehicle: saline) is 106 % of control.
